Patent publication EP3595655B1, “THERAPEUTIC DOSAGE AND REGIMEN FOR MELATONIN” (Chiesi Farmaceutici S.p.A., priority 2017, dated 2018)
Entries after “also recorded” stand apart in the source; their conditions may differ. Read-outs that look alike come from different tables or passages of the source.

What was measured:
[1] = Plasma melatonin levels in piglets (direct radioimmunoassay); type: in vivo; settings: melatonin-treated piglets; therapeutic range from Robertson et al. 2013
[2] = test system: piglet model of neonatal asphyxia; settings: for NTP/epp (whole forebrain, 9.4T MRS): 24h after hypoxia-ischaemia, melatonin 15 mg/kg i.v. over 6h at 2h and 26h plus cooling, p=0.038; for cell death (TUNEL positive cells) in the sensorimotor cortex: p<0.003, p=0.003 (Fig. 4)
Description: Objective: To assess neuroprotection of intravenous melatonin (15 mg/kg) infused slowly over 6h (2.5 mg/kg/h) initiated 2 h after hypoxia-ischaemia in a piglet model of neonatal asphyxia (Fig. 1). Primary outcome measures were TUNEL immuno-labelling of cell death over 9 brain regions (Fig. 2). Secondary outcomes were amplitude-integrated electroencephalography(aEEG) recovery, and magnetic resonance spectroscopy (MRS) biomarkers (NTP/epp and lactate/N acetyl aspartate).
During hypoxia-ischemia the β-NTP peak height was continuously monitored using in-house Matlab (Mathworks) software. At the point at which β-NTP had fallen to 50% of its baseline value, FiO2 was increased to 9%. […] The head was immobilized in a stereotactic frame for MRS acquisition. […] After surgical preparation, multichannel six-lead EEG monitoring (Nicolet, Care Fusion, Wisconsin, USA) was acquired at baseline and throughout the periods between MRS data acquisitions. Filtered amplitude-integrated EEG recordings were classified according to the pattern classification. A score of 0 was flat trace; 1, continuous low voltage; 2, burst suppression; 3, discontinuous normal voltage; and 4, continuous normal voltage, at baseline and then every hour after hypoxia-ischemia. […] Blood samples were collected in lithium/heparin tubes and centrifuged immediately after collection. Plasma was separated and then stored at - 20°C before analysis. Melatonin was routinely measured by direct radioimmunoassay.

[3] = test system: rat organotypic hippocampal slice cultures; assay: Oxygen-glucose deprivation (OGD) in organotypic hippocampal slice cultures, cell death by propidium iodide incorporation; type: cell-based; settings: for Cell death, estimated by propidium iodide incorporation, induced by OGD: OGD alone 90.8 ± 7.6%
From the text: Concentration-response studies were aimed at detecting the range of concentration of melatonin resulting in neuroprotection against oxygen-glucose deprivation (OGD), an experimental model simulating hypoxia-ischemia and reperfusion. Ischemia was simulated in vitro by anoxia combined with a glucose-free media (OGD) in rat organotypic hippocampal slice cultures.

newborn piglets = settings: intravenous 5 mg/kg/h over six hours (30 mg/kg), 10 minutes after resuscitation; cited from earlier work
[4] = Solubilisation of melatonin with Captisol, with or without PEG, in different vehicles; type: physicochemical; settings: Captisol solutions in WFI, glucose 10% solution or phosphate buffer
Description: The first set of experiments was aimed to assess the possibility to solubilise melatonin with different quantity of sulfobutylether-β-cyclodextrin (Captisol™). The test was performed by the addition of melatonin. In the solution containing the Captisol at different concentrations up to presence of undissolved material on the bottom; the solution was filtered and analysed. These tests were performed with three different vehicles: water for injection (WFI), glucose 10% solution and phosphate buffer. In a second set of experiments, PEG with different molecular weights (PEG 300 and PEG 400) was added to verify the possibility to reduce the amount of Captisol used for the dissolution. The results of the first set of experiments, were obtained measuring the assay in formulation at the higher solubility limits having on the bottom some undissolved particles. […] Captisol concentration of 5% was identified as a suitable one, and confirmed by the other results.

## COc1ccc2[nH]cc(CCNC(C)=O)c2c1 [melatonin, N-[2-(5-Methoxy-1H-indol-3-yl)ethyl] acetamide]
[1]
  plasma levels: within the expected therapeutic range
[2]; 24 and 48h after hypoxia-ischaemia
  3T MRS: NTP/epp and PCr/Pi in whole forebrain, Lac/NAA in thalamus and white matter: no difference in any ratio
[2]; versus vehicle
  NTP/epp (whole forebrain, 9.4T MRS): ameliorated the NTP/ePP decline
[2]; versus vehicle, listed as Melatonin
  NTP/epp (whole forebrain, 9.4T MRS): higher
[2]; baseline, 24 and 48h after hypoxia-ischaemia, melatonin 5 and 15 mg/kg groups versus vehicle, apart from 24h NTP/epp
  9.4T MRS: NTP/epp and PCr/Pi in whole forebrain, Lac/NAA in thalamus and white matter: no difference
[2]; between groups at any time point
  group mean hourly aEEG scores: no difference
[2]; melatonin 5 mg/kg/24h i.v. over 6h started 2h after hypoxia-ischaemia plus cooling
  brain protection: no protection
[2]; melatonin 15 mg/kg/24h i.v. over 6h started 2h after hypoxia-ischaemia plus cooling, versus vehicle, 48h
  cell death (TUNEL positive cells) in the sensorimotor cortex: significant protection; also recorded: significant reduction in TUNEL positive cells
[2]; melatonin 15 mg/kg/24h i.v. over 6h started 2h after hypoxia-ischaemia plus cooling, versus vehicle, 48h, listed as Melatonin
  cell death (TUNEL positive cells) in the sensorimotor cortex: reduced cell death
[2]; melatonin 15 mg/kg/24h i.v. over 6h started 2h after hypoxia-ischaemia plus cooling, versus vehicle, 48h, p=0.068, p=0.069 (Fig. 4)
  cell death (TUNEL positive cells) across the whole brain: trend of reduced cell death; also recorded: trend to overall brain reduced TUNEL positive cells; also recorded: trend towards reduced TUNEL positive cells
[2]; piglets, melatonin i.v. infusion plus cooling
  physiological parameters monitored, including mean arterial pressure and inotrope use: did not affect
[3]; 3 µM melatonin
  Cell death, estimated by propidium iodide incorporation, induced by OGD: 57.6 ± 6.9%
[3]; 10 µM melatonin
  Cell death, estimated by propidium iodide incorporation, induced by OGD: 60.9 ± 7.4%
[3]; 25 µM melatonin
  Cell death, estimated by propidium iodide incorporation, induced by OGD: 47.3 ± 3.8%
[3]; 50 µM melatonin
  Cell death, estimated by propidium iodide incorporation, induced by OGD: 38.9 ± 4.2%
[3]; all doses tested with the exception of 1 uM, p<0.01 Dunnet's test after ANOVA
  statistical analysis of the effect on OGD-induced cell death: significant effect
[3]; hippocampal slice cultures of neonatal rats, 1-50 µM
  reduction of OGD-induced cell death: concentration-dependent manner
Newborn piglets
  hypothermic neuroprotection: increases hypothermic neuroprotection
[4]
  influence of glucose or buffer as vehicle on solubility: does not influence the solubility
